These results are taken from US7812026B2, “Imidazole derivatives having a positive allosteric GABAB receptor modulator effect and methods of use” (AstraZeneca AB, priority 2005, dated 2010).

The target of this assay is T1, GABAB receptor (Homo sapiens, UniProt O75899+Q9UBS5).
T1 construct: expressed in transfected cells; host or cells: CHO cells (membranes)
T1 sequence (Q9UBS5 15-961 limits assumed): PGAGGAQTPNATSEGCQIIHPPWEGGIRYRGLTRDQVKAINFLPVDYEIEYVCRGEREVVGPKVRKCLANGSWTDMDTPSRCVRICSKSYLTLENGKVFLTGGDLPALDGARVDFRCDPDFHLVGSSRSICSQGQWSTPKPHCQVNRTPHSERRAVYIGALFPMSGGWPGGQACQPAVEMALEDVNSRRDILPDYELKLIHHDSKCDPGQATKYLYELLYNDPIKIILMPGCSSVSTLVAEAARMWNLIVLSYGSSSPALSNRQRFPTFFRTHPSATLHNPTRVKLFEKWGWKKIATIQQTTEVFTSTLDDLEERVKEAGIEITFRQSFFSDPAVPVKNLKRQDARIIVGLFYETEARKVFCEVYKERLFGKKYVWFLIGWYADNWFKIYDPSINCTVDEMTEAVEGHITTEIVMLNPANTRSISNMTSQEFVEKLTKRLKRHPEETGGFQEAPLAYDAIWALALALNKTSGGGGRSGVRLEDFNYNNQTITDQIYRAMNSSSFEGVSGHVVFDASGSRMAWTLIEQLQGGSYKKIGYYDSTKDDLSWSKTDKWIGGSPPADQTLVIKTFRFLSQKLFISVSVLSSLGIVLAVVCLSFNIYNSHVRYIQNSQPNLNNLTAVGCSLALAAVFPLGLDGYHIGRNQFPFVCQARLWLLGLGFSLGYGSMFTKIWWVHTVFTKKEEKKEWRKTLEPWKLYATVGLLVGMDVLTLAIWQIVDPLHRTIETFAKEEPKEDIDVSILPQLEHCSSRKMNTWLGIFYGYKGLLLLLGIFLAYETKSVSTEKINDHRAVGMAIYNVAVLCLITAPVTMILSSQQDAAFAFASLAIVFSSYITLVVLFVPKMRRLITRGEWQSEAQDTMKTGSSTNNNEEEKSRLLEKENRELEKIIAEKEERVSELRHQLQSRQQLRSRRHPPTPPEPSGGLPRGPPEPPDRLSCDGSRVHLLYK
T1 sequence (O75899 42-941): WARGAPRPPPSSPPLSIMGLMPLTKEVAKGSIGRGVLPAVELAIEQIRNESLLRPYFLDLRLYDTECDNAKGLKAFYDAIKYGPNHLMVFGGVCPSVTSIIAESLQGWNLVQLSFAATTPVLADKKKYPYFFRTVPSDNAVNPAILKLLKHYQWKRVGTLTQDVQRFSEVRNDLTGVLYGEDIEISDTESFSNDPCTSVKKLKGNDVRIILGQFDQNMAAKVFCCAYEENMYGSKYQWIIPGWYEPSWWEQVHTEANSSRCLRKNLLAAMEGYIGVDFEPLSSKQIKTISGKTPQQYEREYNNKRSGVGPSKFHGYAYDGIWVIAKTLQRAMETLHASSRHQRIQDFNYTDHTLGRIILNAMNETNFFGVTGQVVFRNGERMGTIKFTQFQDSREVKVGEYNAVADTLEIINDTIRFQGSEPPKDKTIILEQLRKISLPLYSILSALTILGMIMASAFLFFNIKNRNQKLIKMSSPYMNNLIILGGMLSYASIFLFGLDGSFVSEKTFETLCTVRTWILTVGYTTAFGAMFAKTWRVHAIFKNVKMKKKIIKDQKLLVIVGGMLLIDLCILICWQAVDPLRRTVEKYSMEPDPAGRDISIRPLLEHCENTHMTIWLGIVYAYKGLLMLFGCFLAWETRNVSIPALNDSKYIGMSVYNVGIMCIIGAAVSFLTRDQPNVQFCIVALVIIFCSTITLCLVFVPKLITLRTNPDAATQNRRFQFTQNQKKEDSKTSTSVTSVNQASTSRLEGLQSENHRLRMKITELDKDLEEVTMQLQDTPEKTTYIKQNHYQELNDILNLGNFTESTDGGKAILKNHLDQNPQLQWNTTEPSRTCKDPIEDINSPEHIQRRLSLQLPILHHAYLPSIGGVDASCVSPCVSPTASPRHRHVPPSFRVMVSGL
The experiment in a line: [35S]-GTPγS binding assay, potency of PAM. In kind it is biochemical. To be noted: potency of the positive allosteric modulator; log EC50 for GABA plotted against log concentration of modulator. On the procedure:
[^35S]-GTPγS binding assays were performed at 30° C. for 45 min in membrane buffer (100 mM NaCl, […], 1 mM EDTA, 50 mM HEPES, pH 7.4) containing 0.025 μg/μl of membrane protein (prepared from the cell lines described above) with 0.01% bovine serum albumin (fatty acid free), 10 μM GDP, 100 μM DTT and 0.53 nM [^35S]-GTPγS (Amersham-Pharmacia Biotech) in a final volume of 200 μl. Nonspecific binding was determined in the presence of 20 μM GTPγS. The reaction was started by the addition of GABA at concentration between 1 mM and 0.1 nM in the presence or absence of the required concentration of PAM. The reaction was terminated by addition of ice-cold wash buffer (50 mM Tris-HCl, 5 mM MgCl2, 50 mM NaCl, pH 7.4) followed by rapid filtration under vacuum through Printed Filtermat A glass fiber filters (Wallac) (0.05% PEI treated) using a Micro 96 Harvester (Skatron Instruments). The filters were dried for 30 min at 50° C., then a paraffin scintillant pad was melted onto the filters and the bound radioactivity was determined using a 1450 Microbeta Trilux (Wallac) scintillation counter.
GABA dose-response curves in the presence and absence of test compounds were constructed using the 4-parameter logistic equation, y=ymax+((ymin−ymax)/1+(x/C)^D), where C=EC50 and D=slope factor.
The potency of PAM in GTPγS assays was determined by plotting the log EC50 for GABA against the log concentration of the positive allosteric modulator in the presence of which the measurement was performed.
A general note: GTPγS is a poorly hydrolysed GTP analogue; its binding reports G protein activation.
For orientation: EC50 means the concentration that produces a half-maximal response. High values mean lower potency in that assay, low ones higher potency in that assay. For the compound `CN(C)c1nc(NC(=O)COCc2ccccc2)c(C(=O)OC(C)(C)C)n1-c1ccccc1` [Example 9, tert-butyl 4-{[(benzyloxy)acetyl]amino}-2-(dimethylamino)-1-phenyl-1H-imidazole-5-carboxylate], the midpoint of the response, the EC50, lay at 2470 nM.
The result for `CN(C)c1nc(NC(=O)C2Cc3ccccc3O2)c(C(=O)OC(C)(C)C)n1-c1ccccc1` (stereo not drawn) [Example 13, tert-butyl 4-[(2,3-dihydro-1-benzofuran-2-ylcarbonyl)amino]-2-(dimethylamino)-1-phenyl-1H-imidazole-5-carboxylate] reads 5130 nM.
The result for `CCCc1c(C(=O)Nc2nc(N(C)C)n(-c3ccccc3)c2C(=O)OC(C)(C)C)cnn1-c1ccccc1` [Example 44, tert-butyl 2-(dimethylamino)-1-phenyl-4-{[(1-phenyl-5-propyl-1H-pyrazol-4-yl)carbonyl]amino}-1H-imidazole-5-carboxylate] reads 2530 nM.
